In EP0139005A1, “ANTITUMOR COMPOSITION, METHOD FOR TREATING TUMOR, AND USE OF THE COMPOSITION FOR TREATING TUMOR” (Yoshitomi Pharmaceutical Industries, Ltd., priority 1982, dated 1984):

Tests used:
[1] = system: human breast carcinoma MX-1; assay: Human breast carcinoma MX-1 implanted into kidneys, tumor weight change (Experimental Example 10); format: in vivo, male Swiss nude mice; details: 5th day and 9th day, tumor weight change on 11th day, experiment conducted by National Cancer Institute
Description: A plurality of groups each consisting of six male Swiss nude mice as test groups and twelve of them as the control group were implanted into the respective kidneys with human breast carcinoma MX-1. Each of the animals was administered subcutaneously with Y-6430 dissolved in physiological saline on the next day to the implantation, 5th day and 9th day. On llth day, each of the weight of carcinoma was measured, and the tumor weight change (%) of the implanted carcinoma was calculated in accordance with the following scheme.

L1210 leukemia [2] = assay: L1210 leukemia implanted intraperitoneally, i.p. treatment, survival (Experimental Example 3); format: in vivo, female CDF1 mice; details: for Average Survival Time / Life-Prolongation Ratio (%): once daily for seven days
Description: (§1) The life-prolongation ratio was calculated by the following scheme (the same scheme is applied to the subsequent experimental examples).
(§2) Life-prolongation Ratio [formula] T : Average survival days of the treated group
(§3) C : Average survival days of the control group
(§4) Animals survived over 30 days or longer were estimated as 30-day survivors, and the cases where T/C equals to or greater than 125% were regarded as effective.
A plurality of groups each consisting of five heads of female CDF1 mice (8 weeks old) were respectively implanted intraperitoneally with 10 cells of L1210 leukemia. After the next day of the implantation, Y-6430, ESCC and ESCC ethyl ester (hereinafter referred to ESCC-Et) in physiological saline were respectively administered once daily for seven days intraperitoneally, and the average survival days and life-prolongation ratios in each group were calculated.
(§5) All the test animals died of tumor within 30 days.

P388 leukemia = P388 leukemia implanted intraperitoneally, survival (Experimental Example 2); format: in vivo, female CDF1 mice; details: for 30-day Survivors / Average Survival Time / Life-Prolongation Ratio (%): once daily for seven days
Description: as §1, §2, §3, §4
A plurality of groups each consisting of five heads of female CDF1 mice (7-8 weeks old) were respectively implanted intraperitoneally with 10^6 cells of P388 leukemia. After 24 hours, Y-6430 and ESCC were respectively administered once daily for seven days, and average survival days, life-prolongation ratios and 30-day survivors in each group were calculated.

L1210 leukemia [3] = assay: L1210 leukemia implanted intraperitoneally, oral or subcutaneous treatment, survival (Experimental Example 4); format: in vivo, female CDF1 mice; details: for Average Survival Time / Life-Prolongation Ratio (%): once daily for seven days
Description: as §1, §2, §3, §4
A plurality of groups each consisting of five female CDF1 mice (7-8 weeks old) were respectively implanted intraperitoneally with 10 cells of L1210 leukemia. After the next day of the implantation, the test animals were administered orally or subcutaneously once daily for seven days with Y-6430 or ESCC dissolved in physiological saline, and the average survival days and life-prolongation ratios in each group were calculated.
as §5

sarcoma 180 = assay: Sarcoma 180 implanted intraperitoneally, survival (Experimental Example 9); format: in vivo, male ICR mice; details: once daily for seven days
Description: A plurality of groups each consisting of 12 male ICR mice (6-8 weeks old) were implanted intraperitoneally with 2 x 10^6 cells of sarcoma 180. After the next day to the implantation, Y-6430 was administered intraperitoneally or subcutaneously once daily for seven days.

IMC carcinoma = IMC carcinoma implanted intraperitoneally, survival (Experimental Example 1); format: in vivo, female CDF1 mice; details: for 30-day Survivors / Average Survival Time / Life-Prolongation Ratio (%): once daily for seven days
Description: A plurality of groups each consisting of five heads of female CDF1 mice (7-8 weeks old) were implanted intraperitoneally with 10^6 cells of IMC carcinoma. After 24 hours, Y-6430 was respectively administered once daily for seven days, and average survival times, life-prolongation ratios and 30-day survivors were calculated.
as §1, §2, §3, §4

Ehrlich carcinoma = Ehrlich carcinoma implanted subcutaneously, tumor weight (Experimental Example 7); format: in vivo, male ICR mice; details: once daily for seven days, 24 hours after final administration, control 399.5 mg
Description: A plurality of groups each consisting of six male ICR mice (7-8 weeks old) were respectively implanted subcutaneously with […] Ehrlich carcinoma. After 24 hours, Y-6430 dissolved in physiological saline was administered intraperitoneally once daily for seven days. 24 hours after the final administration, the test animals were killed by ether anesthesia, and the carcinoma of each test animal was exercised and weighed.

For `CCOC(=O)[C@@H](N)CSC(=O)NC.Cl` [Y-6430, S-methylcarbamoyl-L-cysteine ethyl ester hydrochloride], the “Proliferation Ratio (%)” value ([1]; 225 mg/kg s.c. on next day) was -70%, the “Proliferation Ratio (%)” value ([1]; 450 mg/kg s.c. on next day) was -64% and the “Proliferation Ratio (%)” value ([1]; 900 mg/kg s.c. on next day) was -65%. For the same compound, the “Average Survival Time” value (L1210 leukemia [2]; 50 mg/kg/day i.p.) was 8.4 days, the “Life-Prolongation Ratio (%)” value (L1210 leukemia [2]; 50 mg/kg/day i.p.) was 105% and the “Average Survival Time” value (L1210 leukemia [2]; 100 mg/kg/day i.p.) was 9.4 days. The “Life-Prolongation Ratio (%)” value (L1210 leukemia [2]; 100 mg/kg/day i.p.) was 118%, the “Average Survival Time” value (L1210 leukemia [2]; 250 mg/kg/day i.p.) was 9.8 days and the “Life-Prolongation Ratio (%)” value (L1210 leukemia [2]; 250 mg/kg/day i.p.) was 123%. The “Average Survival Time” value (L1210 leukemia [2]; 500 mg/kg/day i.p.) was 12.4 days, the “Life-Prolongation Ratio (%)” value (L1210 leukemia [2]; 500 mg/kg/day i.p.) was 155% and the “effectiveness against L1210 leukemia” value (L1210 leukemia [2]; group administered with 500 mg/kg i.p.) was “effective”. For the same compound, the “30-day Survivors” value (P388 leukemia; 100 mg/kg/day i.p.) was 0/5, the “Average Survival Time” value (P388 leukemia; 100 mg/kg/day i.p.) was 13.4 days and the “Life-Prolongation Ratio (%)” value (P388 leukemia; 100 mg/kg/day i.p.) was 134%. The “30-day Survivors” value (P388 leukemia; 100 mg/kg/day p.o.) was 0/5, the “Average Survival Time” value (P388 leukemia; 100 mg/kg/day p.o.) was 11.6 days and the “Life-Prolongation Ratio (%)” value (P388 leukemia; 100 mg/kg/day p.o.) was 116%. For the same compound, the “30-day Survivors” value (P388 leukemia; 250 mg/kg/day i.p.) was 0/5, the “Average Survival Time” value (P388 leukemia; 250 mg/kg/day i.p.) was 14.6 days and the “Life-Prolongation Ratio (%)” value (P388 leukemia; 250 mg/kg/day i.p.) was 146%. For the same compound, the “30-day Survivors” value (P388 leukemia; 250 mg/kg/day p.o.) was 0/5, the “Average Survival Time” value (P388 leukemia; 250 mg/kg/day p.o.) was 13.4 days and the “Life-Prolongation Ratio (%)” value (P388 leukemia; 250 mg/kg/day p.o.) was 134%. For the same compound, the “30-day Survivors” value (P388 leukemia; 500 mg/kg/day i.p.) was 0/5, the “Average Survival Time” value (P388 leukemia; 500 mg/kg/day i.p.) was 17.2 days and the “Life-Prolongation Ratio (%)” value (P388 leukemia; 500 mg/kg/day i.p.) was 172%. The “30-day Survivors” value (P388 leukemia; 500 mg/kg/day p.o.) was 0/5, the “Average Survival Time” value (P388 leukemia; 500 mg/kg/day p.o.) was 15.0 days and the “Life-Prolongation Ratio (%)” value (P388 leukemia; 500 mg/kg/day p.o.) was 150%. The “30-day Survivors” value (P388 leukemia; 1,000 mg/kg/day p.o.) was 0/5, the “Average Survival Time” value (P388 leukemia; 1,000 mg/kg/day p.o.) was 16.6 days and the “Life-Prolongation Ratio (%)” value (P388 leukemia; 1,000 mg/kg/day p.o.) was 166%. The “effectiveness against P388 leukemia” value (P388 leukemia; summary of Tables 2 and 3, T/C equal to or greater than 125% regarded as effective) was “effective”, the “Average Survival Time” value (L1210 leukemia [3]; 100 mg/kg/day s.c.) was 8.2 days and the “Life-Prolongation Ratio (%)” value (L1210 leukemia [3]; 100 mg/kg/day s.c.) was 103%. The “Average Survival Time” value (L1210 leukemia [3]; 250 mg/kg/day p.o.) was 9.4 days, the “Life-Prolongation Ratio (%)” value (L1210 leukemia [3]; 250 mg/kg/day p.o.) was 115% and the “Average Survival Time” value (L1210 leukemia [3]; 250 mg/kg/day s.c.) was 9.2 days. For the same compound, the “Life-Prolongation Ratio (%)” value (L1210 leukemia [3]; 250 mg/kg/day s.c.) was 115%, the “Average Survival Time” value (L1210 leukemia [3]; 500 mg/kg/day p.o.) was 11.4 days and the “Life-Prolongation Ratio (%)” value (L1210 leukemia [3]; 500 mg/kg/day p.o.) was 139%. The “Average Survival Time” value (L1210 leukemia [3]; 500 mg/kg/day s.c.) was 10.8 days, the “Life-Prolongation Ratio (%)” value (L1210 leukemia [3]; 500 mg/kg/day s.c.) was 135% and the “Average Survival Time” value (L1210 leukemia [3]; 1,000 mg/kg/day p.o.) was 13.8 days. The “Life-Prolongation Ratio (%)” value (L1210 leukemia [3]; 1,000 mg/kg/day p.o.) was 168%, the “effectiveness against L1210 leukemia” value (L1210 leukemia [3]; oral and subcutaneous administration) was “effective” and the “30-day Survivors” value (sarcoma 180; 50 mg/kg/day i.p.) was 0/12. For the same compound, the “Average Survival Time” value (sarcoma 180; 50 mg/kg/day i.p.) was 25.5 days, the “Number of Dead Animals” value (sarcoma 180; 50 mg/kg/day i.p.) was 0/12 and the “30-day Survivors” value (sarcoma 180; 50 mg/kg/day s.c.) was 0/12. For the same compound, the “Average Survival Time” value (sarcoma 180; 50 mg/kg/day s.c.) was 21.9 days, the “Number of Dead Animals” value (sarcoma 180; 50 mg/kg/day s.c.) was 0/12 and the “30-day Survivors” value (sarcoma 180; 100 mg/kg/day i.p.) was 5/12. The “Average Survival Time” value (sarcoma 180; 100 mg/kg/day i.p.) was 27.7 days, the “Number of Dead Animals” value (sarcoma 180; 100 mg/kg/day i.p.) was 0/12 and the “30-day Survivors” value (sarcoma 180; 100 mg/kg/day s.c.) was 0/12. The “Average Survival Time” value (sarcoma 180; 100 mg/kg/day s.c.) was 23.0 days, the “Number of Dead Animals” value (sarcoma 180; 100 mg/kg/day s.c.) was 0/12 and the “30-day Survivors” value (IMC carcinoma; 100 mg/kg/day i.p.) was 0/5. The “Average Survival Time” value (IMC carcinoma; 100 mg/kg/day i.p.) was 24.0 days, the “Life-Prolongation Ratio (%)” value (IMC carcinoma; 100 mg/kg/day i.p.) was 218% and the “30-day Survivors” value (IMC carcinoma; 100 mg/kg/day p.o.) was 0/5. The “Average Survival Time” value (IMC carcinoma; 100 mg/kg/day p.o.) was 12.6 days, the “Life-Prolongation Ratio (%)” value (IMC carcinoma; 100 mg/kg/day p.o.) was 115% and the “30-day Survivors” value (IMC carcinoma; 250 mg/kg/day i.p.) was 1/5. The “Average Survival Time” value (IMC carcinoma; 250 mg/kg/day i.p.) was 25.0 days, the “Life-Prolongation Ratio (%)” value (IMC carcinoma; 250 mg/kg/day i.p.) was 227% and the “30-day Survivors” value (IMC carcinoma; 250 mg/kg/day p.o.) was 0/5. For the same compound, the “Average Survival Time” value (IMC carcinoma; 250 mg/kg/day p.o.) was 18.2 days, the “Life-Prolongation Ratio (%)” value (IMC carcinoma; 250 mg/kg/day p.o.) was 165% and the “30-day Survivors” value (IMC carcinoma; 500 mg/kg/day i.p.) was 1/5. The “Average Survival Time” value (IMC carcinoma; 500 mg/kg/day i.p.) was 27.0 days, the “Life-Prolongation Ratio (%)” value (IMC carcinoma; 500 mg/kg/day i.p.) was 245% and the “30-day Survivors” value (IMC carcinoma; 500 mg/kg/day p.o.) was 0/5. The “Average Survival Time” value (IMC carcinoma; 500 mg/kg/day p.o.) was 21.0 days, the “Life-Prolongation Ratio (%)” value (IMC carcinoma; 500 mg/kg/day p.o.) was 191% and the “30-day Survivors” value (IMC carcinoma; 1,000 mg/kg/day p.o.) was 0/5. The “Average Survival Time” value (IMC carcinoma; 1,000 mg/kg/day p.o.) was 23.0 days, the “Life-Prolongation Ratio (%)” value (IMC carcinoma; 1,000 mg/kg/day p.o.) was 209% and the “effectiveness against IMC carcinoma” value (IMC carcinoma; administered orally or intraperitoneally, T/C equal to or greater than 125% regarded as effective) was “effective”. The “Average Tumor Weight” value (Ehrlich carcinoma; 50 mg/kg/day i.p.) was 194.0 mg and the “Average Tumor Weight” value (Ehrlich carcinoma; 100 mg/kg/day i.p.) was 146.6 mg.
